Converted amounts (≈) assume the structure as drawn. Read-outs that look alike come from different tables or passages of the source.
Legend:
Salmonella ATCC 12176 = assay: MIC in vitro, Salmonella ATCC 12176; assay type: cell-based; conditions: ATCC12176, Salmonella ATCC 12176
Procedure: (§1) The compounds of Formula I have antibacterial activity against both Gram-positive and Gram-negative organisms. Minimum inhibitory concentrations (MIC's) range from 0.2 to >200 μg/ml in in vitro testing.

E. coli SK 12140 [1] = assay: In vivo mouse protection, E. coli SK 12140; conditions: Escherichia coli
Procedure: as §1

S. aureus SK 23390 = assay: MIC in vitro, S. aureus SK 23390; assay type: cell-based; conditions: Staphylococcus aureus
Procedure: as §1

E. coli SK 12140 [2] = assay: MIC in vitro, E. coli SK 12140; assay type: cell-based; conditions: Escherichia coli
Procedure: as §1

Kleb. pneumo. SK 4200 [3] = assay: MIC in vitro, Kleb. pneumo. SK 4200; assay type: cell-based
Procedure: as §1

Strep. faecalis HH 34358 = assay: MIC in vitro, Strep. faecalis HH 34358; assay type: cell-based; conditions: for MIC: Enterococcus faecalis, HH34358, Strep. faecalis HH 34358
Procedure: as §1

E. coli HH 33779 = assay: MIC in vitro, E. coli HH 33779; assay type: cell-based; conditions: for MIC: Escherichia coli
Procedure: as §1

[4] = system: Serrati A marc. ATTC 13880; assay: MIC in vitro, Serrati A marc. ATTC 13880; assay type: cell-based
Procedure: as §1

Entero. cloacae HH 31254 = assay: MIC in vitro, Entero. cloacae HH 31254; assay type: cell-based; conditions: Enterobacter cloacae
Procedure: as §1

Pseudo. aerug. HH 63 = assay: MIC in vitro, Pseudo. aerug. HH 63; assay type: cell-based
Procedure: as §1

Proteus morgani 179 = assay: MIC in vitro, Proteus morgani 179; assay type: cell-based
Procedure: as §1

[5] = system: Entero. aerog. ATTC 13048; assay: MIC in vitro, Entero. aerog. ATTC 13048; assay type: cell-based
Procedure: as §1

S. aureus HH 127 = assay: MIC in vitro, S. aureus HH 127; assay type: cell-based; conditions: Staphylococcus aureus
Procedure: as §1

Kleb. pneumo. SK 1200 = assay: MIC in vitro, Kleb. pneumo. SK 1200; assay type: cell-based
Procedure: as §1

Shigella HH 117 = assay: MIC in vitro, Shigella HH 117; assay type: cell-based; conditions: for MIC: Shigella, HH117, Shigella HH 117
Procedure: as §1

S. villaluz SK 70390 = assay: MIC in vitro, S. villaluz SK 70390; assay type: cell-based
Procedure: as §1

Kleb. pneumo. SK 4200 [6] = assay: In vivo mouse protection, Kleb. pneumo. SK 4200; conditions: sc, Kleb. pneumo. SK 4200, s.c.
[7] = SK12140, po, E. coli SK 12140, p.o.
[8] = SK12140, sc, E. coli SK 12140, s.c.
[9] = HH33779, E. coli HH 33779, read-out: MIC in vitro
[10] = HH31254, Entero. cloacae HH 31254, read-out: MIC in vitro
[11] = Entero. aerog. ATTC 13048, read-out: MIC in vitro
[12] = HH127, S. aureus HH 127, read-out: MIC in vitro
[13] = SK23390, S. aureus SK 23390, read-out: MIC in vitro
[14] = SK12140, E. coli SK 12140, read-out: MIC in vitro
[15] = read-out: MIC in vitro, Entero. aerog. ATTC 13048
[16] = read-out: MIC in vitro, Kleb. pneumo. SK 1200

Row | SMILES | MIC (Salmonella ATCC 12176) [µg/mL] | ED50 (E. coli SK 12140 [1]; [7]) [mg/kg] | ED50 (E. coli SK 12140 [1]; [8]) [mg/kg] | MIC (Kleb. pneumo. SK 4200 [3]) [µg/mL] | MIC (Strep. faecalis HH 34358) [µg/mL] | MIC (E. coli HH 33779; [9]) [µg/mL] | MIC [4] [µg/mL] | MIC (Entero. cloacae HH 31254; [10]) [µg/mL] | MIC (Pseudo. aerug. HH 63) [µg/mL] | MIC (Proteus morgani 179) [µg/mL] | MIC [5, 11] [µg/mL] | MIC (S. aureus HH 127; [12]) [µg/mL] | MIC (S. aureus SK 23390; [13]) [µg/mL] | MIC (E. coli SK 12140 [2]; [14]) [µg/mL] | MIC (Shigella HH 117) [µg/mL] | MIC (S. villaluz SK 70390) [µg/mL] | MIC [5, 15] [µg/mL] | MIC (Kleb. pneumo. SK 1200; [16]) [µg/mL] | MIC (S. aureus HH 127; HH127, read-out: MIC in vitro) [µg/mL] | further results
1 | O=C(Cc1cccs1)NC1C(=O)N2C(C(=O)O)=C(CSc3nnnn3CCNS(=O)(=O)O)CSC12 (stereo not shown) [Compound 2, 7-(2-thienylacetamido)-3-[1-(2-sulfaminoethyl)tetrazol-5-ylthiomethyl]-3-cephem-4-carboxylic acid] | 12.5 (≈ 22.3 µM) | > 50 | 1.02 | 3.1 (≈ 5.52 µM) | 12.5 (≈ 22.3 µM) | 12.5 (≈ 22.3 µM) | > 200 | 6.3 (≈ 11.2 µM) | > 200 | > 200 | 25 (≈ 44.5 µM) | 1.6 (≈ 2.85 µM) |  |  |  |  |  |  |  | MIC (S. aureus SK 23390; SK23390, read-out: MIC in vitro): 0.4 µg/mL (≈ 0.712 µM); MIC (E. coli SK 12140 [2]; SK12140, read-out: MIC in vitro): 3.1 µg/mL (≈ 5.52 µM); MIC (Kleb. pneumo. SK 1200; Kleb. pneumo. SK 1200, read-out: MIC in vitro): 0.8 µg/mL (≈ 1.42 µM)
2 | O=C(CSC(F)(F)F)NC1C(=O)N2C(C(=O)O)=C(CSc3nnnn3CCNS(=O)(=O)O)CSC12 (stereo not shown) [Compound 4, 7-trifluoromethylthioacetamido-3-[1-(2-sulfaminoethyl)tetrazol-5-ylthiomethyl]-3-cephem-4-carboxylic acid] | 0.4 (≈ 0.69 µM) | 50 | 1.82 | 0.8 (≈ 1.38 µM) | 100 (≈ 173 µM) | 1.6 (≈ 2.76 µM) | 100 (≈ 173 µM) | 1.6 (≈ 2.76 µM) | > 200 | > 200 |  | 1.6 (≈ 2.76 µM) | 1.6 (≈ 2.76 µM) | 0.8 (≈ 1.38 µM) | 0.8 (≈ 1.38 µM) | > 200 | 6.3 (≈ 10.9 µM) | 0.2 (≈ 0.345 µM) |  | 
3 | O=C(O)C1=C(CSc2nnnn2CCNS(=O)(=O)O)CSC2C(NC(=O)[C@H](O)c3ccccc3)C(=O)N12 (stereo partly drawn) [Compound 1, 7-D-mandelamido-3-[1-(2-sulfaminoethyl)tetrazol-5-ylthiomethyl]-3-cephem-4-carboxylic acid] |  | 50 | 0.46 | 1.6 (≈ 2.8 µM) | 100 (≈ 175 µM) | 3.1 (≈ 5.42 µM) | 100 (≈ 175 µM) | 1.6 (≈ 2.8 µM) | > 200 |  | 50 (≈ 87.5 µM) |  | 0.8 (≈ 1.4 µM) | 0.8 (≈ 1.4 µM) | 0.4 (≈ 0.7 µM) |  | 6.3 (≈ 11 µM) | 0.4 (≈ 0.7 µM) | 3.1 (≈ 5.42 µM) | MIC in vitro (Shigella HH 117; Shigella HH 117): 0.2 µg/mL (≈ 0.35 µM); MIC in vitro (Kleb. pneumo. SK 4200 [3]): 0.8 µg/mL (≈ 1.4 µM); MIC in vitro (Strep. faecalis HH 34358; Strep. faecalis HH 34358): 50 µg/mL (≈ 87.5 µM); MIC in vitro (E. coli HH 33779; E. coli HH 33779): 1.6 µg/mL (≈ 2.8 µM); ED50 (Kleb. pneumo. SK 4200 [6]): 0.46 mg/kg; MIC in vitro (Proteus morgani 179): 3.1 µg/mL (≈ 5.42 µM); MIC in vitro (Kleb. pneumo. SK 1200; Kleb. pneumo. SK 1200): 0.2 µg/mL (≈ 0.35 µM)
4 | O=C(Cn1cnnn1)NC1C(=O)N2C(C(=O)O)=C(CSc3nnnn3CCNS(=O)(=O)O)CSC12 (stereo not shown) [Compound 3, 7-(1-tetrazolylacetamido)-3-[1-(2-sulfaminoethyl)tetrazol-5-ylthiomethyl]-3-cephem-4-carboxylic acid] | 0.4 (≈ 0.731 µM) |  | 1.56 | 0.8 (≈ 1.46 µM) | 50 (≈ 91.3 µM) |  | 200 (≈ 365 µM) |  | > 200 | 200 (≈ 365 µM) |  |  | 3.1 (≈ 5.66 µM) | 0.8 (≈ 1.46 µM) | 0.4 (≈ 0.731 µM) | > 200 | 3.1 (≈ 5.66 µM) | 0.4 (≈ 0.731 µM) | 3.1 (≈ 5.66 µM) | MIC (E. coli HH 33779; HH33779, read-out: MIC in vitro): 0.8 µg/mL (≈ 1.46 µM); MIC (Entero. cloacae HH 31254; HH31254, read-out: MIC in vitro): 0.8 µg/mL (≈ 1.46 µM)

From patent US4118491A, “7-Acyl-3-(sulfaminoalkyl substituted tetrazolylthiomethyl)cephalosporins, antibacterial compositions containing them and methods of treating bacterial infections with them” (SmithKline Corporation, priority 1976, dated 1978)
